Here are results for 1 molecule from patent US10473645B2, “Methods for identifying a receptor for a ligand and uses thereof” (UNIVERSITE DE GENEVE, priority 2014, dated 2019).

One assay deals with T1, Olfr556 (Mus musculus, UniProt B2RRG2).
T1 sequence (B2RRG2 1-324): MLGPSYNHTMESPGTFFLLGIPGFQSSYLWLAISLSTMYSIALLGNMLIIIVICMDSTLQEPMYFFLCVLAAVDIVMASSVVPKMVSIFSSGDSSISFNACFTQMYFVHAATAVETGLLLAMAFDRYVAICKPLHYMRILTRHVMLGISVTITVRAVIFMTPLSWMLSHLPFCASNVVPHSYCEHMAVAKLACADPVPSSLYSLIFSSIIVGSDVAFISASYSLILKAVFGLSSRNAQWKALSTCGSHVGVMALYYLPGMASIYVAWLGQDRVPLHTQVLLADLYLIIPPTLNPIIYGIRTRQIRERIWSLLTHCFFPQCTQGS
The following applies: expressed in HEK cells; previously shown; read-out: EC50 as agonist of Olfr556; cited from earlier work.

Another assay has as its system OSNs expressing olfr19. Put plainly: pS6 immunolabeling with OR in situ hybridization after odorant exposure. It counts as in vivo, mouse. The following applies: 5% acetophenone, 60 minutes. The method, then:
(§1) In order to independently validate the identity of an acetophenone receptor obtained with the RNAseq approach, the potential colocalization following acetophenone exposure of a neuronal activity marker (the phosphorylated ribosomal protein S6 (pS6) (Knight et al., 2012, Cell, 151, 1126-1137) and specific olfactory receptors were evaluated. To this aim, in-situ hybridizations were performed on sections of olfactory tissue with probes targeting receptor mRNAs followed by immunolabeling of pS6. The probes used were directed against the transcripts of most of the ORs determined as responsive including Olfr983 transcripts (encoding a known acetophenone receptor), Olfr171 transcripts (encoding a known ethyl isobutyrate receptor), and Olfr145 transcripts, encoding a newly identified receptor by RNAseq. Before analysis, mice were exposed to either 5% acetophenone, 5% ethyl isobutyrate, or a negative control condition for 60 minutes. […] 66% (Olfr983) and 70% (Olfr145) of the neurons were positive for pS6 after acetophenone exposure, while only 11% of the neurons expressing Olfr171 were positive for pS6 after exposure to this compound.

The subject of the next assay is OSNs expressing olfr922. The assay is described as above. The following applies: 5% acetophenone, 60 minutes. It counts as in vivo, mouse. On the procedure: as §1
A further assay concerns OSNs expressing olfr109. The assay is described as above. It counts as in vivo, mouse. The following applies: 5% acetophenone, 60 minutes. The method, then: as §1
In the next assay the test system is OSNs expressing olfr901. Described as above. The following applies: 5% acetophenone, 60 minutes. It counts as in vivo, mouse. The method, then: as §1
The test system of assay [1] is neurons expressing Olfr145. The description is as above. The following applies: 60 minutes. It counts as in vivo, mouse. On the procedure: as §1
Assay [2] deals with Olfr160. The following applies: dissociated neurons; previously shown; read-out: EC50 as agonist of Olfr160; cited from earlier work.
The test system of a further assay is Olfr983. Put plainly: OR transcript downregulation by RNAseq after in vivo exposure. The following applies: 5% odorant, 5 hours, reduction larger than 20% = downregulated. Also on record: species or system mouse. The method, then: (§2) Animals were exposed to 5% acetophenone for 5 hours before RNA extraction (as previously described). cDNA libraries were generated with the Truseq RNA and DNA sample preparation kits after selection of polyA-containing mRNAs. Adapters for RNAseq multiplexing were added to the cDNAs. The cDNA libraries were sequenced with a HiSeq®2500 Sequencing system. 100 bp reads were mapped using Bowtie2 with a 28 bp seed. The differential gene expression analyses were performed with DESeq2. Because of the high sequence similarity between OR gene paralogs, some reads are mapped to multiple OR genes. These reads were removed from the analysis.
(§3) Mice (n=6) were exposed to 5% acetophenone or to a “neutral” control condition for 5 hours. An olfactory cDNA library corresponding to each animal was deep sequenced and the ratios of odorant receptor mRNA concentrations relative to controls were plotted (FIG. 3). […] Based on transcriptional downregulation levels observed by RNAseq following acetophenone exposure, a list of 26 candidate responsive ORs was determined (FIG. 3), that reached 74% decrease (Olfr145) or even over 80% (Olfr169) relative to controls. […] The transcript downregulation of 21 out of the 26 olfactory receptor candidates obtained by RNAseq was confirmed by qPCR.

Assay [3] concerns Olfr160. Described as above. The arrangement: species or system mouse. The following applies: 5% odorant, 5 hours, reduction larger than 20% = downregulated. On the procedure:
as §2, §3

Another assay relates to Olfr169. The description is as above. The arrangement: species or system mouse. The following applies: 5% odorant, 5 hours. The method, then: as §2, §3
The test system of the next assay is Olfr1377. The description is as above. The following applies: 5% odorant, 5 hours, reduction larger than 20% = downregulated. The arrangement: species or system mouse. The method, then:
as §2, §3

pEC50: −log10 of the molar value. A value given as a limit tells only on which side of the number the result lay.

Usually pEC50 stands for −log10 of the EC50, conventionally taken in molar units.

Consider `CC(=O)c1ccccc1` [acetophenone], for which the pEC50 at Olfr556 and in the assay with Olfr160 [2] was greater than 4.30 in each case. Moreover, the “olfr19 ps6 positive” value in the assay on OSNs expressing olfr19 is listed as “y (neuronal activation (i.e. pS6 signal in a fraction of neuron exceeding 15% relative to controls))”. Besides, the “olfr922 ps6 positive” value in the assay on OSNs expressing olfr922 is given as “y (neuronal activation (i.e. pS6 signal in a fraction of neuron exceeding 15% relative to controls))”. Further, the “olfr109 ps6 positive” value in the assay with OSNs expressing olfr109 is recorded as “y (neuronal activation (i.e. pS6 signal in a fraction of neuron exceeding 15% relative to controls))”. For the same molecule, the “olfr901 ps6 positive” value with OSNs expressing olfr901 is reported as “y (neuronal activation (i.e. pS6 signal in a fraction of neuron exceeding 15% relative to controls))”. The “olfr145 ps6 positive” value in assay [1] (5% acetophenone) is reported as “y (neuronal activation (i.e. pS6 signal in a fraction of neuron exceeding 15% relative to controls))”. Besides, the “fraction of Olfr145-expressing neurons positive for pS6” value in [1] (5% odorant, in vivo) is 70%. Moreover, the “Olfr983 transcript modulation (RNAseq)” value in the assay with Olfr983 is on record as “downregulated”. Moreover, the “Olfr160 transcript modulation (RNAseq)” value in the assay on Olfr160 [3] is reported as “downregulated”. Also, in the assay with Olfr169, the “Olfr169 transcript decrease relative to controls (RNAseq)” value is “over 80%”. In addition, the “Olfr1377 transcript modulation (RNAseq)” value with Olfr1377 is reported as “downregulated”.
